Data: US20230219986A1, “NOVEL AMINOPYRIMIDINE EGFR INHIBITOR” (QILU PHARMACEUTICAL CO., LTD., priority 2020, published 2023)
Counter-ions that a name gives are not always drawn. Like-named read-outs stand apart in the source and are kept apart here.

Key:
[1] = molecular target: T1, L858R/T790M/C797S triple mutant EGFR (Homo sapiens, UniProt P00533, C797S/L858R/T790M); assay: Enzymology experiment in vitro (HTRF/FRET kinase activity), L858R/T790M/C797S triple mutant EGFR; assay type: biochemical; settings: HTRF KinEASE-TK, read-out: EGFR (L858R/T790M/C797S) IC50
T1 construct: purchased Signalchem
T1 sequence (P00533 25-1210 T790M/C797S/L858R): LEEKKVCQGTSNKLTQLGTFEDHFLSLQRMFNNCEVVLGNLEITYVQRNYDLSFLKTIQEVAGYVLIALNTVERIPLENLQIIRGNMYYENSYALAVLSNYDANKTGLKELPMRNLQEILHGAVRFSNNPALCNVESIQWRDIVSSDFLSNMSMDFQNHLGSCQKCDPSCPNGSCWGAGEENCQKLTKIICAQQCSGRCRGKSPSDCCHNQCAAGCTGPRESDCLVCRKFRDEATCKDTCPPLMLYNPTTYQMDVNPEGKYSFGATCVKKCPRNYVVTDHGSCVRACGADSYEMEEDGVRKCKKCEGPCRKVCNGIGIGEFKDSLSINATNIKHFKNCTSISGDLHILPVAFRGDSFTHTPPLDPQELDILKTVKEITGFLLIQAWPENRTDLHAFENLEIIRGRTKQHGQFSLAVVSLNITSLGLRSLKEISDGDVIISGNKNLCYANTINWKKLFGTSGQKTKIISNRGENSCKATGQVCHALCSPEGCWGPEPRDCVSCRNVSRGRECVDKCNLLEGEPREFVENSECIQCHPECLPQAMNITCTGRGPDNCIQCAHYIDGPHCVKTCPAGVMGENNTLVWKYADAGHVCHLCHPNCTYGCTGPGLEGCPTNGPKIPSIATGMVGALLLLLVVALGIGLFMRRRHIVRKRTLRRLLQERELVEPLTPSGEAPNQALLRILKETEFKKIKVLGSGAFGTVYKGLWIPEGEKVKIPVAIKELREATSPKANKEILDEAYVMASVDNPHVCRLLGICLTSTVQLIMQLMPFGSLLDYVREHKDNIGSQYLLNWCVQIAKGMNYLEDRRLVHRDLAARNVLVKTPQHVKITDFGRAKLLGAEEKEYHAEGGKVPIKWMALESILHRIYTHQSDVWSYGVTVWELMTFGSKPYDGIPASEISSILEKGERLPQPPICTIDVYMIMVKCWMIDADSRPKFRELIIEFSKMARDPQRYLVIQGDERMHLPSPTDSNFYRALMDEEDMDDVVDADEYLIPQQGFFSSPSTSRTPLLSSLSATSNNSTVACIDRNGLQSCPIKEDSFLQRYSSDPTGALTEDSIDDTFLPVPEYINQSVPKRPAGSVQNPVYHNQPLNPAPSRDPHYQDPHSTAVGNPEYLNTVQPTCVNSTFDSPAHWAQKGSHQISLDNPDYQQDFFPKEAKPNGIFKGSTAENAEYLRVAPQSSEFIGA
Description: (§1) 1. Experimental Materials
(§2) HTRF KinEASE-TK kit detection reagent, purchased from Cisbio
(§3) 1) 10 nL of gradient diluted compound was transferred into a 384-well experimental plate using Echo 550 (Labcyte).
(§4) 2) 5 μL of 2×EGFR enzyme solution was added to the 384-well experimental plate and incubated at room temperature for 10 minutes.
(§5) 3) 5 μL of 2× substrate solution containing polypeptide and ATP was added to the 384-well experimental plate and incubated at room temperature for 40 minutes.
(§6) 4) 10 μL of detection solution containing EDTA, XL665-labeled streptavidin and Eu^3+-labeled antibody was added thereto and incubated at room temperature for 1 hour.

[2] = molecular target: Ba/F3 L858R/T790M/C797S EGFR triple mutant cell line (Homo sapiens, UniProt P00533, T790M/C797S/L858R, cells depend on it); assay: Cell proliferation inhibition experiment (CellTiter-Glo), Ba/F3 L858R/T790M/C797S; assay type: cell-based; settings: 72 hours, Cell Titer-Glo, read-out: Ba/F3 (L858R/T790M/C797S) IC50
Sequence of Ba/F3 L858R/T790M/C797S EGFR triple mutant cell line (P00533 whole entry T790M/C797S/L858R): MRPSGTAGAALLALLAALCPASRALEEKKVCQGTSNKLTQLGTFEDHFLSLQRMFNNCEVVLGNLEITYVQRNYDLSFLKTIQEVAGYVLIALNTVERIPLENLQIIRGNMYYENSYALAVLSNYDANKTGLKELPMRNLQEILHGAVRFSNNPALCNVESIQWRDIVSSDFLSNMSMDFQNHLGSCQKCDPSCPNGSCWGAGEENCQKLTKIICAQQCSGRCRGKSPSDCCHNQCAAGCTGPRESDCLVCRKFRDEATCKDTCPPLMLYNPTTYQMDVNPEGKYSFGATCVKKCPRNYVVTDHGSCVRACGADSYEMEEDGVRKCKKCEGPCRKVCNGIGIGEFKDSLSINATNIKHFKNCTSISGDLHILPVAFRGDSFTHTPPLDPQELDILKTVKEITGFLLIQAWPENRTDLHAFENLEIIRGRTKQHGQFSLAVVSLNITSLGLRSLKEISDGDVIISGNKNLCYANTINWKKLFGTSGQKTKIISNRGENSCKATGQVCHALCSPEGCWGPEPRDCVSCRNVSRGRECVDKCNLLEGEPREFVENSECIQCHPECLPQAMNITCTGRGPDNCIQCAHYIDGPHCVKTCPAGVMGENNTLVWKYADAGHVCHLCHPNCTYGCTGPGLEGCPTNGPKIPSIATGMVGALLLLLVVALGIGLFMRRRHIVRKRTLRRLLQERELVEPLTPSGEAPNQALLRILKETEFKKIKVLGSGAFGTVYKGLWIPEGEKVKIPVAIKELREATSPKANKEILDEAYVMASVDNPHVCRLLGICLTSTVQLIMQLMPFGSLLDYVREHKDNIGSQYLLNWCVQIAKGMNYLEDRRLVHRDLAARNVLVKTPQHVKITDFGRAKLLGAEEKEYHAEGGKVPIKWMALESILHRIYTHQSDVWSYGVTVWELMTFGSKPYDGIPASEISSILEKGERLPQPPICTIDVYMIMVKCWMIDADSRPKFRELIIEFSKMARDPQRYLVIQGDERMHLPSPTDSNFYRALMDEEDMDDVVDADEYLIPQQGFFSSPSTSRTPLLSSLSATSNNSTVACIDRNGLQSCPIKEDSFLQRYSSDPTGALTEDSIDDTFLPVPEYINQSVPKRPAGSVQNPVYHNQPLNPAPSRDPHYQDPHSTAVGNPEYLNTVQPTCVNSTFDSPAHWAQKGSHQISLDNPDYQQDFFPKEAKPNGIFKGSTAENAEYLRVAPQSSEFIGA
Description: (§7) 3) 30 nL of gradient diluted compound was transferred into the 384-well experimental plate using Echo 550 (Labcyte) at a DMSO final concentration of 0.1%, and the culture plate was incubated in a cell incubator for 72 hours (37° C., 5% CO2).
(§8) 4) 30 μL of Cell Titer-Glo reagent was added to each well and left for 30 minutes at room temperature and protected from light.
(§9) 5) Envision microplate reader (PerkinElmer) detected chemiluminescence signals.
(§10) 6) GraphPad Prism 8 software was used for data analysis to obtain the IC50 of the compounds of the present disclosure and the positive control.

[3] = system: EGFR wild-type cell line A431; assay: Cell proliferation inhibition experiment (CellTiter-Glo), A431; assay type: cell-based; settings: Homo sapiens, A431 cells, Cell Titer-Glo, read-out: A431 EGFR WT IC50
Description: A431 cells, purchased from ATCC.
1) A431 cells were inoculated in a 384-well culture plate at a density of 800 cells per well, 30 μL per well, placed in a cell incubator, and cultured for 24 hours (37° C., 5% CO2).
as §7, §8, §9, §10

[4] = molecular target: Ba/F3 De119/T790M/C797S EGFR triple mutant cell line (Homo sapiens, UniProt P00533, T790M/C797S, cells depend on it, form not given); assay: Cell proliferation inhibition experiment (CellTiter-Glo), Ba/F3 De119/T790M/C797S; assay type: cell-based; settings: Ba/F3 Del19/T790M/C797S EGFR triple mutant cells, 72 hours, Cell Titer-Glo; read-out: Ba/F3 (Del19/T790M/C797S) IC50
Sequence of Ba/F3 De119/T790M/C797S EGFR triple mutant cell line (P00533 with tags, fused parts or gaps DEL746-750/T790M/C797S, form open): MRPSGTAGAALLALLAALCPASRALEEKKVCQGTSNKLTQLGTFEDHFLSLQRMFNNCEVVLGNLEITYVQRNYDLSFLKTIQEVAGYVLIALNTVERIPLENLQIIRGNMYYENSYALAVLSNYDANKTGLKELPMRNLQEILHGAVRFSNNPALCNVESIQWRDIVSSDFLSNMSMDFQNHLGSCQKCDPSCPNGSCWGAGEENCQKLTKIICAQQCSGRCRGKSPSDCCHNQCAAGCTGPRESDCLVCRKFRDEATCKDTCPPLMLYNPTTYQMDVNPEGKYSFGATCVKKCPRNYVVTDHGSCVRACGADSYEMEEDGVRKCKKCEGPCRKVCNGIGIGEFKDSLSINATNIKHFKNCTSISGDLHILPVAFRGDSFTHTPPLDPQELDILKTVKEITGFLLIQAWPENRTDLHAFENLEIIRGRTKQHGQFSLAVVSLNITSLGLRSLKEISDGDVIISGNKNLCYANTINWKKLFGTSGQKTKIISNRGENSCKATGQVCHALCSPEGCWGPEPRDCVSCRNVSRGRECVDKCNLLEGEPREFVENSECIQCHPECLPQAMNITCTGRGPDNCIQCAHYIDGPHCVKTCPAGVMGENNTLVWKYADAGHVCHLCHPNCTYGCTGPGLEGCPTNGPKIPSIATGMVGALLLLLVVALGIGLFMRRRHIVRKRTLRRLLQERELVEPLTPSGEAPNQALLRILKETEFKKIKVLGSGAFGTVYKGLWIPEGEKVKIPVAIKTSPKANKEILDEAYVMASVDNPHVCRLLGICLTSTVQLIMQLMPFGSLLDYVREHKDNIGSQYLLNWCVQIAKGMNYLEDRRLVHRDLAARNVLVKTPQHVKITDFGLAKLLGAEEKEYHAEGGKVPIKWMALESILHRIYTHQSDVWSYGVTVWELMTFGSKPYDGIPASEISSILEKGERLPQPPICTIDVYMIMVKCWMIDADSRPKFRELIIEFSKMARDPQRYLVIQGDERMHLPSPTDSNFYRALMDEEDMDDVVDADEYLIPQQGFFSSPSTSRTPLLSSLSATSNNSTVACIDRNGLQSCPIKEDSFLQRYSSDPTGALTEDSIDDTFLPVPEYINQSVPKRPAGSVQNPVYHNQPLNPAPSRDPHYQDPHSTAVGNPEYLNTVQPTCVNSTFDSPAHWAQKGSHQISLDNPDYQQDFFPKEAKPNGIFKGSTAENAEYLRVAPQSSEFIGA
Description: as §7, §8, §9, §10

wild-type EGFR = molecular target: T2, wild-type EGFR (Homo sapiens, UniProt P00533); assay: Enzymology experiment in vitro (HTRF/FRET kinase activity), wild-type EGFR; assay type: biochemical; settings: HTRF KinEASE-TK, read-out: EGFR (WT) IC50
T2 construct: purchased Signalchem
T2 sequence (P00533 25-1210): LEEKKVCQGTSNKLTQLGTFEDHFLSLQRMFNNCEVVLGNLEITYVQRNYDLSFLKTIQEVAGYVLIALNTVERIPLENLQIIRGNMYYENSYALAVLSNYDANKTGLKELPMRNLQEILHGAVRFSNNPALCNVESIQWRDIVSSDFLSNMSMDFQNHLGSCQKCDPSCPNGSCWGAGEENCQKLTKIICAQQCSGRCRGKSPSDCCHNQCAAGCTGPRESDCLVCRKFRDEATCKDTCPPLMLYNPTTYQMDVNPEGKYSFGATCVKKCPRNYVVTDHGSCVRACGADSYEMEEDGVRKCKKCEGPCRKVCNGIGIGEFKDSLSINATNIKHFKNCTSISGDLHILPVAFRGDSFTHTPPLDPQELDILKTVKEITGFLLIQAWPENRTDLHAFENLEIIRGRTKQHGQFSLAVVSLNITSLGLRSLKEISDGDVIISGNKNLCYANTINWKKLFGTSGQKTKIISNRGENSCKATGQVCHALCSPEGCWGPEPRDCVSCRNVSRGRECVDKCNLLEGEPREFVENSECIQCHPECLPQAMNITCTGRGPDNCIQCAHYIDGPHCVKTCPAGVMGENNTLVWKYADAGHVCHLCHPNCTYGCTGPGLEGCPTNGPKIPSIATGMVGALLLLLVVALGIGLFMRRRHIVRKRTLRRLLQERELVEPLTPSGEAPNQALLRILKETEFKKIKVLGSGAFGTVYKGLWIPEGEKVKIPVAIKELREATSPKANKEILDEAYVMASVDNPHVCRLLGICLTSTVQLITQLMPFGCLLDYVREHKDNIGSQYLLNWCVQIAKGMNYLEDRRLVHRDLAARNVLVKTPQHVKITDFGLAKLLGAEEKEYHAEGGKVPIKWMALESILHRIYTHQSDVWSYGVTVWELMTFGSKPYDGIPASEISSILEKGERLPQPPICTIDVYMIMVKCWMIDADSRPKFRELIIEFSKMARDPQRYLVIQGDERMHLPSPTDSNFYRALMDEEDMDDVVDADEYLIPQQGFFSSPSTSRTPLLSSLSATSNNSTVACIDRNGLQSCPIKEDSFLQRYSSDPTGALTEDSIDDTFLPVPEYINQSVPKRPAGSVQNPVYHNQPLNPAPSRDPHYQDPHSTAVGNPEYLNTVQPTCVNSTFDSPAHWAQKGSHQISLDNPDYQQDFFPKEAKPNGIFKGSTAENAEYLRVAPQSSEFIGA
Description: as §1, §2, §3, §4, §5, §6

Row | SMILES | IC50 [1] | GI50 [2] | IC50 ([3]; A-431, 72 hours) | GI50 [4] | IC50 (wild-type EGFR) | IC50 ([3]; A-431, 72 h)
1 | COc1cc(N2CCC3(CC2)CN(C)C3)c(-c2cnn(C)c2)cc1Nc1ncc(Br)c(Nc2ccc3nccnc3c2P(C)(C)=O)n1 [Compound 16, (6-((5-bromo-2-((2-methoxy-5-(1-methyl-1H-pyrazol-4-yl)-4-(2-methyl-2,7-diazaspiro[3.5]nonan-7-yl)phenyl)amino)pyrimidin-4-yl)amino)quinoxalin-5-yl)dimethylphosphine oxide formate] | 0.05 nM | 23.5 nM | 51.3 nM | 13.2 nM | 0.51 nM | 
2 | Cn1cc(-c2cc(Nc3ncc(Br)c(Nc4ccc5nccnc5c4P(C)(C)=O)n3)c3c(c2N2CCOCC2)CCO3)cn1 [Compound 17, (6-((5-bromo-2-((5-(1-methyl-1H-pyrazol-4-yl)-4-morpholino-2,3-dihydrobenzofuran-7-yl)amino)pyrimidin-4-yl)amino)quinoxalin-5-yl)dimethylphosphine oxide] | 0.08 nM | 2.13 nM |  | 1.28 nM | 3.61 nM | 67.8 nM
3 | CCc1cnc(Nc2cc(-c3cnn(C)c3)c(N3CCOCC3)cc2OC)nc1Nc1ccc2nccnc2c1P(C)(C)=O [Compound 31, (6-((5-ethyl-2-((2-methoxy-5-(1-methyl-1H-pyrazol-4-yl)-4-morpholinylphenyl)amino)pyrimidin-4-yl)amino)quinoxalin-5-yl)dimethylphosphine oxide] | 0.25 nM | 12.8 nM |  | 4.58 nM | 0.38 nM | 194 nM
4 | COc1cc(N2CCOCC2)c(-c2cnn(C)c2)cc1Nc1ncc(Br)c(Nc2cc(C)c3nccnc3c2P(C)(C)=O)n1 [Compound 33, (6-((5-bromo-2-((2-methoxy-5-(1-methyl-1H-pyrazol-4-yl)-4-morpholinylphenyl)amino)pyrimidin-4-yl)amino)-8-methylquinoxalin-5-yl)dimethylphosphine oxide] | 0.26 nM | 32.5 nM |  | 10.1 nM | 50.2 nM | 1420 nM
5 | COc1cc(S(=O)(=O)N(C)C)c(-c2cnn(C)c2)cc1Nc1ncc(Br)c(Nc2ccc3nccnc3c2P(C)(C)=O)n1 [Compound 35, 4-((5-bromo-4-((5-(dimethylphosphoryl)quinoxalin-6-yl)amino)pyrimidin-2-yl)amino)-5-methoxy-N,N-dimethyl-2-(1-methyl-1H-pyrazol-4-yl)benzenesulfonamide] | 11.9 nM | 327 nM |  | 93.2 nM | 384 nM | 752 nM
6 | COc1cc(N2CCOCC2)c(-c2cnn(C)c2)cc1Nc1ncc(C2CC2)c(Nc2ccc3nccnc3c2P(C)(C)=O)n1 [Compound 41, (6-((5-cyclopropyl-2-((2-methoxy-5-(1-methyl-1H-pyrazol-4-yl)-4-morpholinylphenyl)amino)pyrimidin-4-yl)amino)quinoxalin-5-yl)dimethylphosphine oxide] | 0.31 nM | 34.5 nM |  | 8.64 nM | 21.1 nM | 371 nM
7 | COc1cc(N2CCOCC2)c(-c2cnn(C)c2)cc1Nc1nccc(Nc2ccc3nccnc3c2P(C)(C)=O)n1 [Compound 42, (6-((2-((2-methoxy-5-(1-methyl-1H-pyrazol-4-yl)-4-morpholinophenyl)amino)pyrimidin-4-yl)amino)quinoxalin-5-yl)dimethylphosphine oxide] | 1.24 nM | 69.2 nM |  | 6.76 nM | 166 nM | ≥ 5000 nM
8 | COc1cc(C2CCOCC2)c(-c2cnn(C)c2)cc1Nc1ncc(Br)c(Nc2ccc3nccnc3c2P(C)(C)=O)n1 [Compound 69] | 0.17 nM | 19.2 nM |  | 5.91 nM | 17.4 nM | 303 nM
9 | COc1cc(N2CCOCC2)c(-c2cnn(C)c2)cc1Nc1ncc(Br)c(Nc2cc3c(cc2P(C)(C)=O)CC3)n1 [Compound 79, (4-((5-bromo-2-((2-methoxy-5-(1-methyl-1H-pyrazol-4-yl)-4-morpholinylphenyl)amino)pyrimidin-4-yl)amino)bicyclo[4.2.0]octa-1,3,5-trien-3-yl)dimethylphosphine oxide] | 0.45 nM | 13.5 nM |  | 9.89 nM | 29.9 nM | 633 nM
10 | COc1cc(N2CCOCC2)c(-c2cnn(C)c2)cc1Nc1ncc(Br)c(Nc2ccccc2NS(C)(=O)=O)n1 [Compound 80] | 0.01 nM | 10.1 nM |  | 5.37 nM | 8.85 nM | 415 nM
11 | Cn1cc(-c2cc(Nc3ncc(Br)c(Nc4ccc5nccnc5c4P(C)(C)=O)n3)c3c(c2)OCO3)cn1 [Compound 82, (6-((5-bromo-2-((6-(1-methyl-1H-pyrazol-4-yl)benzo[d][1,3]dioxol-4-yl)amino)pyrimidin-4-yl)amino)quinoxalin-5-yl)dimethylphosphine oxide] | 0.28 nM | 21.7 nM |  | 7.85 nM | 18.2 nM | 180 nM
12 | COc1cc(N2CCN(C(C)C)CC2)c(-c2cnn(C)c2)cc1Nc1ncc(Br)c(Nc2ccc3nccnc3c2P(C)(C)=O)n1 [Compound 88, (6-((5-bromo-2-((4-(4-isopropylpiperazin-1-yl)-2-methoxy-5-(1-methyl-1H-pyrazol-4-yl)phenyl)amino)pyrimidin-4-yl)amino)quinoxalin-5-yl)dimethylphosphine oxide] | 0.09 nM | 4.45 nM |  | 2.18 nM | 4.26 nM | 40.9 nM
13 | COc1cc(N2CCOCC2)c(-c2cnn(C)c2)cc1Nc1nc(Nc2ccccc2P(C)(C)=O)c2ccccc2n1 [compound 3] | 22 nM | 444 nM |  | 281 nM | 1250 nM | 2240 nM
14 | COc1cc(N2CCOCC2)c(-c2cnn(C)c2)cc1Nc1ncc(C)c(Nc2ccc3nccnc3c2P(C)(C)=O)n1 [compound 4] | 0.28 nM | 13.6 nM |  | 2.38 nM | 1.41 nM | 194 nM
15 | COc1ccc(-c2cnn(C)c2)cc1Nc1ncc(Br)c(Nc2ccc3nccnc3c2P(C)(C)=O)n1 [compound 5] | 0.03 nM | 12.7 nM |  | 3.71 nM | 8.13 nM | 140 nM
16 | COc1ccc(-c2cnoc2)cc1Nc1ncc(Br)c(Nc2ccc3nccnc3c2P(C)(C)=O)n1 [compound 9] | 0.88 nM | 110 nM |  | 55 nM | 75.7 nM | 450 nM
17 | COc1cc(N2CCC(N(C)C)C2)c(-c2cnn(C)c2)cc1Nc1ncc(Br)c(Nc2ccc3nccnc3c2P(C)(C)=O)n1 (stereo not shown) [compound 10] | 0.1 nM | 10.7 nM |  | 6.06 nM | 4.55 nM | 47 nM
18 | COc1cc(N2CC3CC2CN3C)c(-c2cnn(C)c2)cc1Nc1ncc(Br)c(Nc2ccc3nccnc3c2P(C)(C)=O)n1 (stereo not shown) [compound 11] | 0.07 nM | 224 nM |  | 83.4 nM | 12.1 nM | 159 nM
19 | COc1cc(N2CCCN(C)CC2)c(-c2cnn(C)c2)cc1Nc1ncc(Br)c(Nc2ccc3nccnc3c2P(C)(C)=O)n1 [compound 12] | 0.05 nM | 45.9 nM |  | 6.32 nM | 1.59 nM | 76.1 nM
20 | COc1cc(N2CCN(C(C)=O)CC2)c(-c2cnn(C)c2)cc1Nc1ncc(Br)c(Nc2ccc3nccnc3c2P(C)(C)=O)n1 [compound 14] | 0.15 nM | 13.6 nM |  | 5.98 nM | 1.06 nM | 150 nM
